The test system of assay [1] is Monographella nivalis (Microdochium nivale). Description: Monographella nivalis (Microdochium nivale) / liquid culture (foot rot cereals). The assay is classed as cell-based. The conditions noted are these: PDB liquid culture, 24° C., growth inhibition determined photometrically 4-5 days after application, vs untreated control. On the procedure:
Example B5: Monographella nivalis (Microdochium nivale)/Liquid Culture (Foot Rot Cereals) Conidia of the fungus from cryogenic storage are directly mixed into nutrient broth (PDB potato dextrose broth). After placing a (DMSO) solution of test compound into a microtiter plate (96-well format), the nutrient broth containing the fungal spores is added. The test plates are incubated at 24° C. and the inhibition of growth is determined photometrically 4-5 days after application. […] […]-49, and P-50.

Assay [2] relates to Magnaporthe grisea (Pyricularia oryzae). Description: whole plant or invertebrate. The assay is classed as in vivo. The conditions noted are these: foliar, read-out: control of Magnaporthe grisea.
Assay [3] deals with Mycosphaerella graminicola (Septoria tritici). Description: Mycosphaerella graminicola (Septoria tritici) / liquid culture (Septoria blotch). The format is cell-based. The conditions noted are these: Zymoseptoria tritici, PDB liquid culture, 24° C., growth inhibition determined photometrically 4-5 days after application, vs untreated control. The protocol: Example B12: Mycosphaerella graminicola (Septoria tritici)/Liquid Culture (Septoria Blotch) Conidia of the fungus from cryogenic storage are directly mixed into nutrient broth (PDB potato dextrose broth). After placing a (DMSO) solution of test compound into a microtiter plate (96-well format), the nutrient broth containing the fungal spores is added. The test plates are incubated at 24° C. and the inhibition of growth is determined photometrically 4-5 days after application. […] […]-48, and P-49.

Assay [4] deals with Glomerella lagenarium (Colletotrichum lagenarium). Description: Glomerella lagenarium (Colletotrichum lagenarium) / liquid culture (anthracnose). The note with it: Colletotrichum orbiculare, PDB liquid culture, 24° C., growth inhibition measured photometrically 3-4 days after application, vs untreated control. The format is cell-based. On the procedure:
Example B2: Glomerella lagenarium (Colletotrichum lagenarium)/Liquid Culture (Anthracnose) Conidia of the fungus from cryogenic storage are directly mixed into nutrient broth (PDB potato dextrose broth). After placing a (DMSO) solution of test compound into a microtiter plate (96-well format), the nutrient broth containing the fungal spores is added. The test plates are incubated at 24° C. and the inhibition of growth is measured photometrically 3-4 days after application. […] […]-49, and P-50.

The test system of assay [5] is Blumeria graminis f. sp. tritici (Erysiphe graminis f. sp. tritici). Description: Blumeria graminis f. sp. tritici / wheat / leaf disc preventative (powdery mildew on wheat). The format is in vivo. The conditions noted are these: foliar, wheat leaf segments cv. Kanzler, inoculated 1 day after application, assessed 6-8 days after application, vs untreated control. On the procedure:
Example B3: Blumeria graminis f. sp. tritici (Erysiphe graminis f. so. tritici)/Wheat/Leaf Disc Preventative (Powdery Mildew on Wheat) Wheat leaf segments cv. Kanzler are placed on agar in a multiwell plate (24-well format) and sprayed with the formulated test compound diluted in water. The leaf disks are inoculated by shaking powdery mildew infected plants above the test plates 1 day after application. The inoculated leaf disks are incubated at 20°° C. and 60% rh under a light regime of 24 h darkness followed by 12 h light/12 h darkness in a climate chamber and the activity of a compound is assessed as percent disease control compared to untreated when an appropriate level of disease damage appears on untreated check leaf segments (6-8 days after application). […]-45, and P-50.

Take `COc1ncc(Nc2cnsc2)nc1C(=O)NC1CCC1(C)C` (stereo not drawn) [Compound P-42, (isothiazol-4-ylamino)-N-(2,2-dimethylcyclobutyl)-6-3-methoxy-pyrazine-2-carboxamide]: the inhibition of growth at 20 ppm in assay [1] and in assay [3] was not below 80% each time. Further, the pest or weed control at 200 ppm in assay [2] was not below 80%.
Regarding `COc1ncc(Nc2cnsc2)nc1C(=O)NC1CCc2cc(C(F)(F)F)ccc21` (stereo not drawn) [Compound P-15, 6-(isothiazol-4-ylamino)-3-methoxy-N-[5-(trifluoromethyl)indan-1-yl]pyrazine-2-carboxamide], the inhibition of growth at 20 ppm in assay [4], in assay [1] and in assay [3] was not below 80% in each case.
`COc1ncc(Nc2cc(F)cc(F)c2)nc1C(=O)NCc1cccc2ccnn12` [Compound P-27] returned an inhibition of growth at 20 ppm in assay [4] not below 80%.
With `COc1ncc(Nc2cnsc2)nc1C(=O)NCCc1ccc(OC(F)(F)F)cc1` [Compound P-10], the inhibition of growth at 20 ppm in assay [4] and in assay [1] was not below 80% each time.
Turning to `COc1ncc(Nc2cc(F)cc(F)c2)nc1C(=O)NC1CCc2cc(C(F)(F)F)ccc21` (stereo not drawn) [Compound P-32, 6-(3,5-difluoroanilino)-3-methoxy-N-[5-(trifluoromethyl)indan-1-yl]pyrazine-2-carboxamide], the inhibition of growth at 20 ppm in assay [4], in assay [1] and in assay [3] was not below 80% each time.
For the molecule `COc1ncc(Nc2cc(F)cc(F)c2)nc1C(=O)NC1CCN(c2cccc(OC(F)(F)F)c2)C1=O` (stereo not drawn) [Compound P-6, 6-(3,5-difluoroanilino)-3-methoxy-N-[2-oxo-1-[3-(trifluoromethoxy)phenyl]pyrrolidin-3-yl]pyrazine-2-carboxamide], the inhibition of growth at 20 ppm in assay [4] and in assay [1] was not below 80% each time. Also, in assay [2], the pest or weed control at 200 ppm is not below 80%.
Take `COc1ncc(NCC(C)(C)O)nc1C(=O)NC1CCC1(C)C` (stereo not drawn) [Compound P-8, N-(2,2-dimethylcyclobutyl)-6-[(2-hydroxy-2-methyl-propyl)amino]-3-methoxy-pyrazine-2-carboxamide]: the inhibition of growth at 20 ppm in assay [4] and in assay [1] was not below 80% in each case. Further, the pest or weed control at 200 ppm in assay [5] is not below 80%.
As for `COc1ncc(Nc2cnsc2)nc1C(=O)NCc1cccc2c1OC(F)(F)O2` [Compound P-12, N-[(2,2-difluoro-1,3-benzodioxol-4-yl)methyl]-6-(isothiazol-4-ylamino)-3-methoxy-pyrazine-2-carboxamide], the inhibition of growth at 20 ppm in assay [4], in assay [1] and in assay [3] was not below 80% each time.
Consider `CC1(NC(=O)c2cncc(Nc3cc(F)nc(F)c3)n2)CCCC1` [Compound P-49, 6-[(2,6-difluoro-4-pyridyl)amino]-N-(1-methylcyclopentyl) pyrazine-2-carboxamide], for which the inhibition of growth at 20 ppm in assay [4], in assay [1] and in assay [3] was not below 80% each time. Moreover, in assay [2], the pest or weed control at 200 ppm is not below 80%.
In the case of `COc1ncc(Nc2cc(F)cc(F)c2)nc1C(=O)NCC1COc2ccccc21` (stereo not drawn) [Compound P-26, 6-(3,5-difluoroanilino)-N-(2,3-dihydrobenzofuran-3-yimethyl)-3-methoxy-pyrazine-2-carboxamide], the inhibition of growth at 20 ppm in assay [4] was not below 80%. The pest or weed control at 200 ppm in assay [2] was not below 80%.
With `COc1ncc(Nc2cc(F)cc(F)c2)nc1C(=O)NCC1(c2ccc(C(F)(F)F)cn2)CC1` [Compound P-19, 6-(3,5-difluoroanilino)-3-methoxy-N-[[1-[5-(trifluoromethyl)-2-pyridyl]cyclopropyl]methyl]pyrazine-2-carboxamide], the inhibition of growth at 20 ppm in assay [4] and in assay [1] was not below 80% in each case. Also, the pest or weed control at 200 ppm in assay [2] is not below 80%.
Regarding `CCON=C(CNC(=O)c1nc(Nc2cc(F)cc(F)c2)cnc1OC)c1ncc(Cl)cc1Cl` [Compound P-17, N-[2-(3,5-dichloro-2-pyridyl)-2-ethoxyimino-ethyl]-6-(3,5-difluoroanilino)-3-methoxy-pyrazine-2-carboxamide], the inhibition of growth at 20 ppm in assay [4] and in assay [1] was not below 80% throughout.
Take `Cc1ncc(Nc2cc(F)cc(F)c2)nc1C(=O)NC1CCC1(C)C` (stereo not drawn) [Compound P-47, 6-(3,5-difluoroanilino)-N-(2,2-dimethylcyclobutyl)-3-methyl-pyrazine-2-carboxamide]: the inhibition of growth at 20 ppm in assay [4] and in assay [1] was not below 80% each time. The pest or weed control at 200 ppm in assay [2] is not below 80%.
As for `COc1ncc(Nc2cc(F)cc(F)c2)nc1C(=O)NCc1c(Cl)cncc1Cl` [Compound P-23, N-[(3.5-dichloro-4-pyridyl)methyl]-6-(3,5-difluoroanilino)-3-methoxy-pyrazine-2-carboxamide], in assay [4], the inhibition of growth at 20 ppm is not below 80%. Also, the pest or weed control at 200 ppm in assay [2] was not below 80%.
As to `CCON=C(CNC(=O)c1nc(Nc2cc(F)nc(F)c2)cnc1OC)c1ncc(Cl)cc1Cl` [Compound P-33, N-[2-(3,5-dichloro-2-pyridyl)-2-ethoxyimino-ethyl]-6-[(2,6-difluoro-4-pyridyl)amino]-3-methoxy-pyrazine-2-carboxamide], the inhibition of growth at 20 ppm in assay [4] was not below 80%.
Regarding `COc1ncc(Nc2cnsc2)nc1C(=O)NCC1(C(F)(F)F)CC1` [Compound P-11], the inhibition of growth at 20 ppm in assay [4], in assay [1] and in assay [3] was not below 80% each time.
`COc1ncc(Nc2cc(F)nc(F)c2)nc1C(=O)NCc1ccc(Oc2ccccc2)cc1` [Compound P-36, 6-[(2,6-difluoro-4-pyridyl)amino]-3-methoxy-N-[(4-phenoxyphenyl)methyl]pyrazine-2-carboxamide] came in with an inhibition of growth at 20 ppm in assay [4] not below 80%. Besides, in assay [2], the pest or weed control at 200 ppm is not below 80%.
For the molecule `CC1(C)CCC1NC(=O)c1cncc(Nc2cc(F)nc(F)c2)n1` (stereo not drawn) [Compound P-46, 6-[(2,6-difluoro-4-pyridyl)amino]-N-(2,2-dimethylcyclobutyl) pyrazine-2-carboxamide], the inhibition of growth at 20 ppm in assay [4], in assay [1] and in assay [3] was not below 80% throughout.
In the case of `COc1ncc(Nc2cc(F)cc(F)c2)nc1C(=O)NC1CCc2ccc(C(F)(F)F)cc21` (stereo not drawn) [Compound P-31, 6-(3,5-difluoroanilino)-3-methoxy-N-[6-(trifluoromethyl)indan-1-yl]pyrazine-2-carboxamide], the inhibition of growth at 20 ppm in assay [4] and in assay [3] was not below 80% each time.
With `COc1ncc(Nc2cc(F)cc(F)c2)nc1C(=O)NCCc1ccc(OC(F)(F)F)cc1` [Compound P-18, 6-(3,5-difluoroanilino)-3-methoxy-N-[2-[4-(trifluoromethoxy)phenyl]ethyl]pyrazine-2-carboxamide], the inhibition of growth at 20 ppm in assay [4] and in assay [1] was not below 80% throughout.
In the case of `COc1ncc(NC2CC2)nc1C(=O)NC1CCC1(C)C` (stereo not drawn) [Compound P-3, 6-(cyclopropylamino)-N-(2,2-dimethylcyclobutyl)-3-methoxy-pyrazine-2-carboxamide], the inhibition of growth at 20 ppm in assay [4] and in assay [1] was not below 80% in each case.
In turn, `COc1ncc(Nc2cc(F)cc(F)c2)nc1C(=O)NC1(c2ccccn2)CC1` [Compound P-7, 6-(3,5-difluoroanilino)-3-methoxy-N-[1-(2-pyridyl)cyclopropyl] pyrazine-2-carboxamide] showed an inhibition of growth at 20 ppm in assay [1] not below 80%.
Regarding `COc1ncc(Nc2cnsc2)nc1C(=O)NC1CCc2ccc(C(F)(F)F)cc21` (stereo not drawn) [Compound P-14, 6-(isothiazol-4-ylamino)-3-methoxy-N-[6-(trifluoromethyl)indan-1-yl]pyrazine-2-carboxamide], the inhibition of growth at 20 ppm in assay [4], in assay [1] and in assay [3] was not below 80% each time. Further, the pest or weed control at 200 ppm in assay [2] was not below 80%.
On to `COc1ncc(NC2CCC2)nc1C(=O)NC1CCC1(C)C` (stereo not drawn) [Compound P-2, 6-(cyclobutylamino)-N-(2,2-dimethylcyclobutyl)-3-methoxy-pyrazine-2-carboxamide], for which the inhibition of growth at 20 ppm in assay [4], in assay [1] and in assay [3] was not below 80% throughout.

These data come from US12528778B2, “Microbiocidal derivatives” (SYNGENTA CROP PROTECTION AG, priority 2019, dated 2026).
